# Legend:
# interferon (α) = experiment: Cytokine induction in human cells: interferon secreted by PBMCs, bioassay (A549 cells challenged with encephalomyocarditis virus); assay type: cell-based; details: PBMC, incubated 18 to 24 hours, interferon determined using the bioassay method, read-out: Lowest Effective Concentration (μM) Interferon
# Text: An in vitro human blood cell system was used to assess cytokine induction by compounds of the invention. Activity is based on the measurement of interferon and tumor necrosis factor (α) (IFN and TNF, respectively) secreted into culture media as described by Testerman et. al. In “Cytokine Induction by the Immunomodulators Imiquimod and S-27609”, Journal of Leukocyte Biology, 58, 365-372 (September, 1995).
# Whole blood is collected by venipuncture into EDTA vacutainer tubes from healthy human donors. Peripheral blood mononuclear cells (PBMCs) are separated from whole blood by density gradient centrifugation using Histopaque®-1077 (Sigma Chemicals, St. Louis, Mo.). The PBMCs are suspended at 3-4×10^6 cells/mL in RPMI 1640 medium containing 10% fetal bovine serum, 2 mM L-glutamine and 1% penicillin/streptomycin solution (RPMI complete). The PBMC suspension is added to 48 well flat bottom sterile tissue culture plates (Costar, Cambridge, Mass. or Becton Dickinson Labware, Lincoln Park, N.J.) containing an equal volume of RPMI complete media containing test compound.
# The compounds are solubilized in dimethyl sulfoxide (DMSO). The DMSO concentration should not exceed a final concentration of 1% for addition to the culture wells.
# The solution of test compound is added at 60 μM to the first well containing RPMI complete and serial (three fold or ten fold) dilutions are made. The PBMC suspension is then added to the wells in an equal volume, bringing the test compound concentrations to the desired range. The final concentration of PBMC suspension is 1.5-2×10^6 cells/mL. The plates are covered with sterile plastic lids, mixed gently and then incubated for 18 to 24 hours at 37° C. in a 5% carbon dioxide atmosphere.
# Following incubation the plates are centrifuged for 5-10 minutes at 1000 rpm (˜200×g) at 4° C. The cell culture supernatant is removed with a sterile polypropylene pipet and transferred to sterile polypropylene tubes. Samples are maintained at −30 to −70° C. until analysis. The samples are analyzed for interferon (α) by either ELISA or bioassay and for tumor necrosis factor (α) by ELISA.
# Interferon is determined by bioassay using A549 human lung carcinoma cells challenged with encephalomyocarditis. The details of the bioassay method have been described by G. L. Brennan and L. H. Kronenberg in “Automated Bioassay of Interferons in Micro-test Plates”, Biotechniques, June/July, 78, 1983, incorporated herein by reference. Briefly stated the method is as follows: A549 cells are incubated with dilutions of samples or a standard interferon at 37° C. for 24 hours. The incubated cells are then infected with an inoculum of encephalomyocarditis virus. The infected cells are incubated for an additional 24 hours at 37° C. before evaluating for viral cytopathic effect. The viral cytopathic effect is quantified by staining with crystal violet followed by visual scoring of the plates. Results are expressed as alpha reference units/mL based on the value obtained for NIH Human Leukocyte IFN standard.
# The table below lists the lowest concentration found to induce interferon and the lowest concentration found to induce tumor necrosis factor for each compound. […] Unless otherwise indicated, the interferon biosynthesis was determined by ELISA.
# [1] = system: tumor necrosis factor (α); experiment: Cytokine induction in human cells: tumor necrosis factor (α) secreted by PBMCs, ELISA; assay type: cell-based; details: PBMC, incubated 18 to 24 hours, TNF determined by ELISA, read-out: Lowest Effective Concentration (μM) Tumor Necrosis Factor
# In short: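 Human donor PBMCs at final 1.5-2×10^6 cells/mL in RPMI with 10% FBS incubated 18 to 24 h at 37° C. with serially diluted compound, DMSO at most 1% final. Supernatant TNF-α measured by ELISA; value is the lowest concentration inducing TNF.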
Structure (SMILES),minimal effective concentration (interferon (α)) [µM],minimal effective concentration [1] [µM]
Nc1nc2ccccc2c2c1ncn2CCCCNC(=O)c1c(F)c(F)c(F)c(F)c1F [Example 68],1.11,10
Nc1nc2ccccc2c2c1ncn2CCCCNC(=O)c1ccccc1Cl [Example 69],0.12,1.11
Nc1nc2ccccc2c2c1ncn2CCCCNC(=O)c1c(Cl)cccc1Cl [Example 71],0.12,3.33
Nc1nc2ccccc2c2c1ncn2CCCCNC(=O)c1ccc(F)cc1 [Example 72],0.37,10
Nc1nc2ccccc2c2c1ncn2CCCCNC(=O)c1ccc(Cl)cc1 [Example 73],0.37,10
COc1ccc(C(=O)NCCCCn2cnc3c(N)nc4ccccc4c32)cc1 [Example 74],0.37,10
Nc1nc2ccccc2c2c1ncn2CCCCNC(=O)c1ccc(C(F)(F)F)cc1 [Example 75],1.11,
CC(C)(C)c1ccc(C(=O)NCCCCn2cnc3c(N)nc4ccccc4c32)cc1 [Example 76],3.33,
Cc1ccc(C(=O)NCCCCn2cnc3c(N)nc4ccccc4c32)cc1 [Example 77],1.11,10
Nc1nc2ccccc2c2c1ncn2CCCCNC(=O)Cc1ccccc1 [Example 78],0.12,10
Nc1nc2ccccc2c2c1ncn2CCCCNC(=O)/C=C/c1ccccc1 [Example 79],0.37,> 30
CC(C)(C)CC(=O)NCCCCn1cnc2c(N)nc3ccccc3c21 [Example 80],1.11,10
Nc1nc2ccccc2c2c1ncn2CCCCNC(=O)C1CC1 [Example 81],3.33,30
Nc1nc2ccccc2c2c1ncn2CCCCNC(=O)C1CCCC1 [Example 82],0.12,10
Nc1nc2ccccc2c2c1ncn2CCCCNC(=O)CCC1CCCC1 [Example 83],1.11,
Nc1nc2ccccc2c2c1ncn2CCCCNC(=O)C1CCCCC1 [Example 84],0.12,10
